Measured values taken from patent US6447748B1, “Benzamide compounds for cancer imaging and therapy” (Research Corporation Technologies, Inc., priority 1993, dated 2002).
pKd, pKi: −log10 of the molar value.

Tests used:
[1] = test system: MCF-7 breast cancer cells; parameters: species or system human; conditions: read-out: Kd, saturable binding
From the text: The cells were adherent and split weekly in a 1:20 ratio using trypsin/EDTA (GIBCO).

[2] = target: sigma sites labeled by 4-[125I]PEMP in guinea pig brain membranes; format: binding; conditions: read-out: Ki against 4-[125I]PEMP
Procedure: (§1) Intact adherent cells were washed (2×1 mL) with 10 mM phosphate buffer (pH=7.2). […] Each data point represent an average of three values. The cells were incubated at 37° C. for 1 hr. and subsequently washed with phosphate buffer (10 mM; pH 7.2) (3×1 mL). The cells were then dissolved in 0.2 N NaOH (1.0 mL) and the activity counted on a Beckman (DP 5500) Gamma Counter. A similar procedure was repeated with 2-[^125I]BP with MCF-7, MDA-MB 231 and T47D breast cancer cells.
(§2) The affinity of compounds for sites labeled by 4-[^125I]PEMP was determined by homologous and heterologous in vitro competitive binding assays in intact MCF-7 breast cancer cells and guinea pig brain membranes labeled by 4-[^125I]PEMP. The assays were prepared according to the procedure described in Example 14.

[3] = test system: sites labeled by 4-[125I]PEMP in MCF-7 breast tumor cells
Procedure: as §1, §2

Sigma-1 = Sigma-1 (Cavia porcellus, UniProt Q60492); assay: Sigma-1 binding assay, guinea pig brain membranes, [3H]-(+)-pentazocine (Example 8); conditions: read-out: Ki Sigma-1 Guinea Pig Brain; 3 nM [3H]-(+)-pentazocine, 60 min at 37° C.
Procedure: (§5) A crude P2 membrane fraction was also prepared from the livers of rat Sprague-Dawley rats (150-220 g, Taconic Farms) liver. The animals were decapitated and their livers were minced and homogenized. The tissue homogenization was carried out at 4° C. in ml/g tissue weight of 10 mM Tris-HCl/0.32 M sucrose, pH=7.4 using 10 motor-driven strokes in a Potter-Elvehjem Teflon glass homogenizer. The crude homogenate was centrifuged for 10 min at 1000 g and the crude nuclear (P1) pellet was discarded. Supernatants were centrifuged at 31000 g for 15 min to yield a plasma membrane-mitochondrial pellet (P2). This pellet was resuspended in 3 ml/g in 10 mM tris-HCl, pH 7.4 and used for binding studies. Protein concentrations were determined by the method of Lowry.
(§6) Filters were washed twice with ice-cold buffer. Prior to use, filters were soaked in 0.5% polyethyleneimine for about 30 min at 25° C.
(§7) When the assay was terminated, the membranes were filtered and the filtrate washed twice as above. The radioactivity was counted in Ecoscint (National Diagnostics, Manville, N.J.) after an overnight extraction of counts.
(§8) Ki values were calculated from the IC50 values using Cheng-Prusoff equation.

Sigma-2 = target: T1, Sigma-2 (Rattus norvegicus, UniProt Q5U3Y7); assay: Sigma-2 binding assay, rat liver membranes, [3H]DTG + dextrallorphan (Example 8); conditions: read-out: Ki Sigma-2 Rat Liver; 3 nM [3H]DTG, 1 micromolar dextrallorphan
T1 sequence (Q5U3Y7 1-176): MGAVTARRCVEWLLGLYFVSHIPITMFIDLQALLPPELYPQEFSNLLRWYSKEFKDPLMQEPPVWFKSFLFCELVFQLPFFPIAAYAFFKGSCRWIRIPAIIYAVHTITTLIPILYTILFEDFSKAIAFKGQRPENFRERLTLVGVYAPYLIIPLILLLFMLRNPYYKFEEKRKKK
Procedure: as §5, §6, §7, §8

[4] = target: T2, Sigma-2, rat C6 glioma cells (Rattus norvegicus, UniProt Q5U3Y7); assay: Sigma-2 binding assay, C6 glioma cell homogenates, [3H]DTG + dextrallorphan (Example 8); conditions: read-out: Ki Sigma-2 C6 Glioma Cells; 3 nM [3H]DTG, 1 micromolar dextrallorphan
T2 sequence (Q5U3Y7 1-176): T1 sequence (Q5U3Y7 1-176)
Procedure: as §6, §7, §8

[5] = test system: A2058 human malignant melanoma cells; assay: In vitro competitive binding of nonradioactive IPAB against [125I]PAB in A2058 cells; conditions: 37° C. for 5 hr., read-out: Ki, nonradioactive IPAB inhibiting binding of radioactive IPAB
Procedure: These cells were grown in DMEM2 medium (Dulbecco's modification of Eagle's medium, EMEM) supplemented with 10% fetal bovine serum and 0.03% L-glutamine.
A2058 cells, grown as described above, were harvested with calcium and magnesium free phosphate buffer (0.1 M) containing 0.02% EDTA. Cells were washed twice with ice-cold RPMI 1640 medium (Gibco) without glutamine and resuspended in the same medium. Carrier-free [^125I]PAB (0.1 ml) was added to eight aliquots of 0.1 ml test A2058 cells (1.5×10^6 cells in suspension). To observe competitive binding by non-radioactive IPAB, varying concentrations of non-radioactive IPAB were added in a volume of 0.1 ml. Cells were incubated at 37° C. for 5 hr. after addition of radioactive and nonradioactive IPAB.
After incubation, cells were collected by centrifugation for 5 min and washed twice with RPMI 1640 medium. The radioactivity bound to cells was counted using a Packard Autogamma 5650 scintillation counter.
Data were analyzed with an INPLOT® iterative, non-linear least square curve fitting program.

[6] = test system: human melanoma xenograft tumors (A2058); assay: Scintigraphic imaging of nude mice bearing human melanoma xenografts; format: in vivo, Balb/c nu/nu mice
Procedure: (§3) A2058 cells, derived from a brain metastasis of human malignant melanoma (Todaro et al. 1980 Proc. Natl. Acad. Sci. USA 77: 5258) were obtained from the National Institutes of Health. A human lung adenocarcinoma cell line, NCI-838, was obtained from the National Cancer Institute. These cells were grown in DMEM2 medium (Dulbecco's modification of Eagle's medium, […]) supplemented with 10% fetal bovine serum and 0.03% L-glutamine.
(§4) Balb/c nu/nu mice (17-22 g) bearing human melanoma or non-small cell lung carcinoma xenograft tumors were injected intravenously with 0.2 ml of saline solution containing [^131I]PAB or [^131I]DAB (150-200 μCi). The animals were anesthetized with ketamine containing rompun before the imaging studies. The images were obtained using a scintigraphic camera with a pin-hole collimator at 6 and 24 hr. post injection.

[7] = test system: human adenocarcinoma xenograft (NCI-838); assay: Scintigraphic imaging of nude mouse bearing human lung adenocarcinoma xenograft; format: in vivo, Balb/c nu/nu mice; conditions: 24 and 30 hrs. post-injection
Procedure: as §3
as §4, with “The images were obtained using a scintigraphic camera with a pin-hole collimator at 6 and 24 hr. post injection.” left out

Sequence of Sigma-1 (Q60492 whole entry): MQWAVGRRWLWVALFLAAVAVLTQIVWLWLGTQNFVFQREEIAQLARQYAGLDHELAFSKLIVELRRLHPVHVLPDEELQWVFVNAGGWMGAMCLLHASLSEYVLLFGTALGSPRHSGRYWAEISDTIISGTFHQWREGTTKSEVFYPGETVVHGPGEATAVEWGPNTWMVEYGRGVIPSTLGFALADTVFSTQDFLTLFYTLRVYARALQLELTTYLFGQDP

In the case of `O=C(NC1CCN(Cc2ccccc2)CC1)c1ccc(I)cc1` [4-[^125I]BP, ^125I-(N-Benzylpiperidin-4-yl)-4-iodobenzamide], the pKd [1] was 7.59.

With `CN(CCc1ccc(Cl)c(Cl)c1)CCN1CCCC1` [BD1008] the pKi [2] was 8.25 and the “inhibition of specific binding of 4-[125I]PEMP” value [3] was “high affinity, concentration-dependent inhibition of specific binding”.

In the case of `O=C(NCCN1CCCCC1)c1ccc(I)cc1` [IPAB, (2-Piperidinylaminoethyl)4-iodobenzamide], the pKi (Sigma-1) was 9.05, the pKi (Sigma-2) was 7.62 and the pKi [4] was 6.89. The pKi [5] was 8.17.

In the case of “^131I(2-Piperidinylaminoethyl)4-iodobenzamide [[^131I]PAB]”, the “detection in the tumor, scintigraphic image” value ([6]; 6 and 24 hrs. post injection) was “detected only within the tumor”, the “uptake in the liver, scintigraphic image” value ([6]; 6 and 24 hrs. post-administration) was “Little or no” and the “visualization of implanted tumor, scintigraphic image” value [7] was “easily visualized the implanted tumor”.
